In publication PMC12377202, “Design, synthesis, and cytotoxic evaluation of quinazoline-based derivatives as VEGER-2 inhibitors: comparative study against EGFR kinase activity, induction of apoptosis, and molecular docking study” (RSC Advances, 2025):

Columns and labels:
[1] = system: MCF-7; experiment: MTT anti-proliferative assay, MCF-7; format: cell-based, human; conditions: Homo sapiens, MCF7
[2] = system: HepG-2; experiment: MTT anti-proliferative assay, HepG-2; format: cell-based, human; conditions: Homo sapiens, HepG2
[3] = system: K-562; experiment: MTT anti-proliferative assay, K-562; format: cell-based, human; conditions: Homo sapiens, K562
[4] = system: caspase-3; experiment: Caspase-3 expression level in HepG-2 cells; format: cell-based, human; conditions: for Caspase-3 ± SE: HepG-2, at IC50 concentrations, control 0.460
Description: (§1) All synthesized compounds were tested at their cytotoxic concentrations in HepG-2 cells for analysis of gene expression levels of apoptotic markers caspase-3, caspase-9, TNF-α, and IL-6 proteins, and only two active compounds were tested for BAX and Bcl-2 proteins.
(§2) through Flow cytometric analysis.
(§3) Pellets were collected again and incubated with
(§4) Total RNA from vehicle-treated
(§5) (Thermo Scientific, USA).
(§6) All experiments were performed in […]

[5] = system: caspase-9; experiment: Caspase-9 expression level in HepG-2 cells; format: cell-based, human; conditions: for Caspase-9 ± SE: HepG-2, at IC50 concentrations, control 11.01
Description: as §1, §2, §3, §4, §5, §6

[6] = system: TNF-alpha; experiment: TNF-alpha level in HepG-2 cells; format: cell-based, human; conditions: control 43.48
Description: as §1, §2, §3, §4, §5, §6

[7] = system: IL-6R; experiment: IL-6R level in HepG-2 cells; format: cell-based, human
Description: as §1, §2, §3, §4, §5, §6

[8] = molecular target: EGFR (Homo sapiens, UniProt P00533); experiment: EGFR kinase inhibition assay (ELISA kit)
EGFR, sequence (P00533 25-1210): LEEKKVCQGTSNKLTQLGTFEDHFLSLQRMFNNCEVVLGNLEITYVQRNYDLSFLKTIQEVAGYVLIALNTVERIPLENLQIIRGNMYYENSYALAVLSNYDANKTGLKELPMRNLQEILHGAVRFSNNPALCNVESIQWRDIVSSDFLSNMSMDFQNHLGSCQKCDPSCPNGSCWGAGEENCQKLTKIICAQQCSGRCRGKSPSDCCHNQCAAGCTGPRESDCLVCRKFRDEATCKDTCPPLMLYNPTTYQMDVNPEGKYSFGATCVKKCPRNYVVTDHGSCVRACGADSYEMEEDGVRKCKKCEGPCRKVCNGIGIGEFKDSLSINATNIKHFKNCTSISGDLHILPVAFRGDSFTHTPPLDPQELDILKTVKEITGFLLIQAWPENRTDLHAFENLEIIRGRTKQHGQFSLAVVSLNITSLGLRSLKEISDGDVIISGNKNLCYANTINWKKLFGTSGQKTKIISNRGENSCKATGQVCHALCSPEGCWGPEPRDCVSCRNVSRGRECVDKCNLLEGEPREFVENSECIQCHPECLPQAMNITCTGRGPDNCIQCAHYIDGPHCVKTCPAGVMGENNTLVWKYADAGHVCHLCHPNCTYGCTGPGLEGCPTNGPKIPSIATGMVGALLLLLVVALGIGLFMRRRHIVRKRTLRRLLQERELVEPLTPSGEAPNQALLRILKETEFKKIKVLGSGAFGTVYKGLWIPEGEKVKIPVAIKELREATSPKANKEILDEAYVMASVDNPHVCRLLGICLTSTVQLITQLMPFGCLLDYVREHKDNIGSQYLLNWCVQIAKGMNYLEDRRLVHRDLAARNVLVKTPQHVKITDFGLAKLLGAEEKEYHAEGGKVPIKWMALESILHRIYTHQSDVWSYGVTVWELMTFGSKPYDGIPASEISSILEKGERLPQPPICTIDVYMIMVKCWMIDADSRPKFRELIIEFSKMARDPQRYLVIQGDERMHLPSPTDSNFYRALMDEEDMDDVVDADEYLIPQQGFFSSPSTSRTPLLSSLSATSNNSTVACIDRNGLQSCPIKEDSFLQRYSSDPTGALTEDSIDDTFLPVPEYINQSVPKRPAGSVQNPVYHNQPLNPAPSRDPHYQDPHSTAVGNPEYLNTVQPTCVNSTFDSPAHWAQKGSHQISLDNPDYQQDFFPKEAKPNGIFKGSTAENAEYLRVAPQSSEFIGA

[9] = molecular target: VEGFR-2 (Homo sapiens, UniProt P35968); experiment: In vitro VEGFR-2 inhibitory assay (ELISA kit); conditions: VEGFR-2 kinase
VEGFR-2, sequence (P35968 20-1356): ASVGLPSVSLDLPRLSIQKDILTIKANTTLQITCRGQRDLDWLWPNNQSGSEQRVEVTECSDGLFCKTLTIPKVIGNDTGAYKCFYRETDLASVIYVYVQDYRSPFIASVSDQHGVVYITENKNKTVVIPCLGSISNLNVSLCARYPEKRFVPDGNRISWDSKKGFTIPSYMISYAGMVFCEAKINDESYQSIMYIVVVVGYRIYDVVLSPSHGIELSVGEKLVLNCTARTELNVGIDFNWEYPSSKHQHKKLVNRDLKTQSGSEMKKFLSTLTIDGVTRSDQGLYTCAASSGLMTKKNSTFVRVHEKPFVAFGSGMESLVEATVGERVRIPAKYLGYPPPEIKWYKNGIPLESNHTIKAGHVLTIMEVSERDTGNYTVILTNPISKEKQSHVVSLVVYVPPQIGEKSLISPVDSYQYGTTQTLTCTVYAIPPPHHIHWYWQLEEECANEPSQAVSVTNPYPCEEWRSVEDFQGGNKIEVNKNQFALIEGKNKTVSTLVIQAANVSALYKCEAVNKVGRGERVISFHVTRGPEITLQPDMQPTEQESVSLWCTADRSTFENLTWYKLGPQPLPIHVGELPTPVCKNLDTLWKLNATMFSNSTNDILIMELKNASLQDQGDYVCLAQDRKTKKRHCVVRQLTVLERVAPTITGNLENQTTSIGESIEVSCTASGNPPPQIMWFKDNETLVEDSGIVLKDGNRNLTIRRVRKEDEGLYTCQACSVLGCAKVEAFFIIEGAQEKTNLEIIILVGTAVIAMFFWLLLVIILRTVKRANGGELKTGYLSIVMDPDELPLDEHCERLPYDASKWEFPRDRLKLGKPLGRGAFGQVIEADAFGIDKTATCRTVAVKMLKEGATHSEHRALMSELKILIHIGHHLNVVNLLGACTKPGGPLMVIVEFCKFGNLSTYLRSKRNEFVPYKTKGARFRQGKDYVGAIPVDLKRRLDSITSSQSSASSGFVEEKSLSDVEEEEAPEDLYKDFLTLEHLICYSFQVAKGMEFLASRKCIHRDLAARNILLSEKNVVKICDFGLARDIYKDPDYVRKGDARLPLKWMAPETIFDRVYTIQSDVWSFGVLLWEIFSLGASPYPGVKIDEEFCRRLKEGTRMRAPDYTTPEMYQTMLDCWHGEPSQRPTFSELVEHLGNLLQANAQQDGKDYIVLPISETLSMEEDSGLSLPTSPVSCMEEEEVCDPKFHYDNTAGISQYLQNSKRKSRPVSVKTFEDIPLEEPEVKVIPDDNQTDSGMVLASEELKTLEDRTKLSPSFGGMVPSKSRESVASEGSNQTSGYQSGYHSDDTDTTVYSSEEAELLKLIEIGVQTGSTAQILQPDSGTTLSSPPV

Activity % ([8]; HepG2): 16.278%
Inhibition % ([8]; HepG2): 83.722%
Activity % ([8]; K-562): 17.305%
Inhibition % ([8]; K-562): 82.695%
Activity % ([8]; MCF7): 18.736%
Inhibition % ([8]; MCF7): 81.264%
Activity % ([9]; HepG2): 11.673%
Inhibition % ([9]; HepG2): 88.327%
Activity % ([9]; K-562): 21.332%
Inhibition % ([9]; K-562): 78.668%
Activity % ([9]; MCF7): 19.260%
Inhibition % ([9]; MCF7): 80.740%
SMILES: O=C(Cn1cnc2cc(Cl)ccc2c1=O)Nc1ccccc1Cl [8b, 2-(7-Chloro-4-oxoquinazolin-3(4H)-yl)-N-(2-chlorophenyl)acetamide]
viability at 0.195 µmol ([1]; MCF-7, 0.195 umol): 47.8%
cytotoxicity at 0.195 µmol ([1]; MCF-7, 0.195 umol, read-out: Toxicity %): 52.2%
viability at 0.391 µmol ([1]; MCF-7, 0.391 umol): 28.6%
cytotoxicity at 0.391 µmol ([1]; MCF-7, 0.391 umol, read-out: Toxicity %): 71.4%
viability at 0.781 µmol ([1]; MCF-7, 0.781 umol): 14.1%
cytotoxicity at 0.781 µmol ([1]; MCF-7, 0.781 umol, read-out: Toxicity %): 85.9%
viability at 1.563 µmol ([1]; MCF-7, 1.563 umol): 12%
cytotoxicity at 1.563 µmol ([1]; MCF-7, 1.563 umol, read-out: Toxicity %): 88%
viability at 3.125 µmol ([1]; MCF-7, 3.125 umol): 9.81%
cytotoxicity at 3.125 µmol ([1]; MCF-7, 3.125 umol, read-out: Toxicity %): 90.2%
viability at 6.25 µmol ([1]; MCF-7, 6.25 umol): 8.27%
cytotoxicity at 6.25 µmol ([1]; MCF-7, 6.25 umol, read-out: Toxicity %): 91.7%
viability at 12.5 µmol ([1]; MCF-7, 12.5 umol): 6.86%
cytotoxicity at 12.5 µmol ([1]; MCF-7, 12.5 umol, read-out: Toxicity %): 93.1%
viability at 25 µmol ([1]; MCF-7, 25 umol): 6.68%
cytotoxicity at 25 µmol ([1]; MCF-7, 25 umol, read-out: Toxicity %): 93.3%
IC50 ([1]; MTT, MCF-7, read-out: Cytotoxicity against cancer cells IC50 MCF-7): 191 ± 4 nM
viability at 0.195 µg/mL ([2]; HepG-2, 0.195 ug/ml): 52.9%
cytotoxicity at 0.195 µg/mL ([2]; HepG-2, 0.195 ug/ml, read-out: Toxicity %): 47.1%
viability at 0.391 µg/mL ([2]; HepG-2, 0.391 ug/ml): 33.3%
cytotoxicity at 0.391 µg/mL ([2]; HepG-2, 0.391 ug/ml, read-out: Toxicity %): 66.7%
viability at 0.781 µg/mL ([2]; HepG-2, 0.781 ug/ml): 27.5%
cytotoxicity at 0.781 µg/mL ([2]; HepG-2, 0.781 ug/ml, read-out: Toxicity %): 72.5%
viability at 1.563 µg/mL ([2]; HepG-2, 1.563 ug/ml): 13.7%
cytotoxicity at 1.563 µg/mL ([2]; HepG-2, 1.563 ug/ml, read-out: Toxicity %): 86.3%
viability at 3.125 µg/mL ([2]; HepG-2, 3.125 ug/ml): 9.67%
cytotoxicity at 3.125 µg/mL ([2]; HepG-2, 3.125 ug/ml, read-out: Toxicity %): 90.3%
viability at 6.25 µg/mL ([2]; HepG-2, 6.25 ug/ml): 8.39%
cytotoxicity at 6.25 µg/mL ([2]; HepG-2, 6.25 ug/ml, read-out: Toxicity %): 91.6%
viability at 12.5 µg/mL ([2]; HepG-2, 12.5 ug/ml): 7.03%
cytotoxicity at 12.5 µg/mL ([2]; HepG-2, 12.5 ug/ml, read-out: Toxicity %): 93%
viability at 25 µg/mL ([2]; HepG-2, 25 ug/ml): 5.68%
cytotoxicity at 25 µg/mL ([2]; HepG-2, 25 ug/ml, read-out: Toxicity %): 94.3%
IC50 ([2]; MTT, HepG-2, read-out: Cytotoxicity against cancer cells IC50 HepG-2): 224.2 ± 1.7 nM
viability at 0.195 µmol ([3]; K-562, 0.195 umol): 82.7%
cytotoxicity at 0.195 µmol ([3]; K-562, 0.195 umol, read-out: Toxicity %): 17.3%
viability at 0.391 µmol ([3]; K-562, 0.391 umol): 55.2%
cytotoxicity at 0.391 µmol ([3]; K-562, 0.391 umol, read-out: Toxicity %): 44.8%
viability at 0.781 µmol ([3]; K-562, 0.781 umol): 27.4%
cytotoxicity at 0.781 µmol ([3]; K-562, 0.781 umol, read-out: Toxicity %): 72.6%
viability at 1.563 µmol ([3]; K-562, 1.563 umol): 16.4%
cytotoxicity at 1.563 µmol ([3]; K-562, 1.563 umol, read-out: Toxicity %): 83.6%
viability at 3.125 µmol ([3]; K-562, 3.125 umol): 11.1%
cytotoxicity at 3.125 µmol ([3]; K-562, 3.125 umol, read-out: Toxicity %): 88.9%
viability at 6.25 µmol ([3]; K-562, 6.25 umol): 8.54%
cytotoxicity at 6.25 µmol ([3]; K-562, 6.25 umol, read-out: Toxicity %): 91.5%
viability at 12.5 µmol ([3]; K-562, 12.5 umol): 7.8%
cytotoxicity at 12.5 µmol ([3]; K-562, 12.5 umol, read-out: Toxicity %): 92.2%
viability at 25 µmol ([3]; K-562, 25 umol): 6.69%
cytotoxicity at 25 µmol ([3]; K-562, 25 umol, read-out: Toxicity %): 93.3%
IC50 ([3]; MTT, K-562, read-out: Cytotoxicity against cancer cells IC50 K-562): 464.2 ± 3 nM
Caspase-3 ± SE [4]: 1.10 ± 0.046 ng/mL
Caspase-3 ± SE ([4]; listed as R3): 1.10 ng/mL
caspase-3 expression level, fold increase ([4]; HepG-2, vs control cells): 2.40 fold
Caspase-9 ± SE [5]: 83.31 ± 1.28 ng/L
Caspase-9 ± SE ([5]; listed as R3): 83.31 ng/L
caspase-9 expression level, fold increase ([5]; HepG-2, vs control cells): 7.5 fold
TNF-alpha ±SE ([6]; HepG-2, at IC50 concentrations): 23.47 ± 0.56 ng/L
TNF-alpha ±SE ([6]; raw data, HepG2): 16.86 ng/L
IL-6R ± SE ([7]; HepG-2, at IC50 concentrations, control 44.10): 24.59 ± 0.95 ng/L
IL-6R protein level ([7]; HepG-2, control 44.10%): 24.59 ng/L
IL-6 ±SE ([7]; raw data, HepG2, control 44.10): 11.87 ng/L
